Patent US9879043B1, “Synthesis of non-natural cofactor analogs of S-adenosyl-L-methionine using methionine adenosyltransferase” (University of Kentucky Research Foundation, priority 2013, dated 2018)
Read-outs that look alike come from different tables or passages of the source.

Legend:
[1] = target: T1, Sulfolobus solfataricus MAT (sMAT) (Saccharolobus solfataricus, UniProt Q980S9); type: biochemical; conditions: 2 mM analog, 1 mM ATP, 5 μM sMAT, pH 8.0, 4 h at 65° C., average of two assays
T1 sequence (Q980S9 1-404): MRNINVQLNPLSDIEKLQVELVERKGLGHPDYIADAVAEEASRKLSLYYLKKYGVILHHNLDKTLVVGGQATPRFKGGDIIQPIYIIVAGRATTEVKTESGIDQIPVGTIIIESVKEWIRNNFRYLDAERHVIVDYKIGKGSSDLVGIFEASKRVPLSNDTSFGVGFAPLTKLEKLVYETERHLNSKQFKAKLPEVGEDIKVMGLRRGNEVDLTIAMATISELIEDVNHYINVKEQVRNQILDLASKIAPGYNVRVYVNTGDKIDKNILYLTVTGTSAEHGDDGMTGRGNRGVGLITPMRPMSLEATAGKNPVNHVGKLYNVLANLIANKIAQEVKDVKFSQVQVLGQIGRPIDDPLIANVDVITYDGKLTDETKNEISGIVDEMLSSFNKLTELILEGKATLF

[2] = target: Escherichia coli MAT (eMAT) (Escherichia coli, UniProt P0A817); test: MAT assay, turnover of S/Se-Met analogs to S(Se)AM analogs (RP-HPLC end point); type: biochemical; conditions: 2 mM Met analog, 1 mM ATP, 5 μM MAT, pH 8, 4 h, 37° C., average of two assays
Escherichia coli MAT (eMAT), sequence (P0A817 whole entry): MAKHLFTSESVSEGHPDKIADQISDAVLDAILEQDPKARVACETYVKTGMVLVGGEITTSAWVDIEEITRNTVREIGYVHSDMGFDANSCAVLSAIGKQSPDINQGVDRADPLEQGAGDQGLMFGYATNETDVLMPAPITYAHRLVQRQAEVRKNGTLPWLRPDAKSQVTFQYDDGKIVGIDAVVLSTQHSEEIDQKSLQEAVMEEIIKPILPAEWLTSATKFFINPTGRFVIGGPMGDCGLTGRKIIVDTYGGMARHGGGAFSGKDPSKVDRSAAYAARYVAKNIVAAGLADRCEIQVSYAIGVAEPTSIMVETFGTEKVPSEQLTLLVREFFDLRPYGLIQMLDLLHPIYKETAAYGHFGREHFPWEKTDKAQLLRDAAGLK

SMILES: CCSCC[C@H](N)C(=O)O [compound 3, (2S)-2-amino-4-(ethylsulfanyl)butanoic acid]
- Percentage Turn-Over (sMAT) [1]: 84%
- Percentage Turn-Over (sMAT) ([1]; listed as ethionine): ~100%
- Percentage Turn-over eMAT [2]: 8%
- Percentage Turn-over eMAT ([2]; listed as ethionine): 10%
